Laboratory results from ChEMBL document CHEMBL1201862, “PubChem BioAssay data set” (2004).
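Grown in 96-well plates, cells were treated for 48 hours with each compound at five concentrations. Insufficient inhibition: endpoint recorded as highest concentration tested. GI50 marks 50% less growth.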 Activity calls are given as the source filed them. No stated cut-off is given here; in the data, active = GI50 up to about 1.1 µM and inactive = higher.

Experiments:
Test in all cases: DTP human tumour cell line panel, 48 h
SK-MEL-2 = system: SK-MEL-2
MOLT-4 = system: MOLT-4
A498 = system: A498
A549 = system: A549
HL-60 = system: HL-60
Malme-3M = system: Malme-3M
KM12 = system: KM12
HCT-116 = system: HCT-116
PC-3 = system: PC-3
HT-29 = system: HT-29
LOX IMVI = system: LOX IMVI
ACHN = system: ACHN
CCRF-CEM = system: CCRF-CEM
OVCAR-4 = system: OVCAR-4
UACC-62 = system: UACC-62
SF-295 = system: SF-295
786-0 = system: 786-0
NCI-H226 = system: NCI-H226
NCI-H460 = system: NCI-H460
DU-145 = system: DU-145

Row | Compound | GI50 (SK-MEL-2) | GI50 (MOLT-4) | GI50 (A498) | GI50 (A549) | GI50 (HL-60) | GI50 (Malme-3M) | GI50 (KM12) | GI50 (HCT-116) | GI50 (PC-3) | GI50 (HT-29) | GI50 (LOX IMVI) | GI50 (ACHN) | GI50 (CCRF-CEM) | GI50 (OVCAR-4) | GI50 (UACC-62) | GI50 (SF-295) | GI50 (786-0) | GI50 (NCI-H226) | GI50 (NCI-H460) | GI50 (DU-145)
1 | O=c1c2ccc(Cl)cc2oc2c(CNc3ccc(S(=O)(=O)Nc4ncccn4)cc3)cccc12 | > 100 µM (inactive) | > 100 µM (inactive) | > 100 µM (inactive) | > 100 µM (inactive) | > 100 µM (inactive) | > 100 µM (inactive) | > 100 µM (inactive) | > 100 µM (inactive) | > 100 µM (inactive) | > 100 µM (inactive) | > 100 µM (inactive) | > 100 µM (inactive) | > 100 µM (inactive) | > 100 µM (inactive) | > 100 µM (inactive) | > 100 µM (inactive) | > 100 µM (inactive) | > 100 µM (inactive) | – | –
2 | O=C(O)CC(Cc1ccccc1)C(=O)O (configuration not stated) | > 100 µM (inactive) | > 100 µM (inactive) | > 100 µM (inactive) | > 100 µM (inactive) | – | > 100 µM (inactive) | > 100 µM (inactive) | > 100 µM (inactive) | > 100 µM (inactive) | > 100 µM (inactive) | > 100 µM (inactive) | > 100 µM (inactive) | > 100 µM (inactive) | > 100 µM (inactive) | > 100 µM (inactive) | > 100 µM (inactive) | 76.2 µM (inactive) | 50.4 µM (inactive) | > 100 µM (inactive) | > 100 µM (inactive)
3 | O=c1[nH]c2nc3ccccc3c(=O)n2/c1=C/c1cccs1 | > 100 µM (inactive) | > 100 µM (inactive) | – | > 100 µM (inactive) | > 100 µM (inactive) | > 100 µM (inactive) | 70.3 µM (inactive) | > 100 µM (inactive) | > 100 µM (inactive) | > 100 µM (inactive) | > 100 µM (inactive) | > 100 µM (inactive) | > 100 µM (inactive) | > 100 µM (inactive) | > 100 µM (inactive) | > 100 µM (inactive) | > 100 µM (inactive) | > 100 µM (inactive) | – | > 100 µM (inactive)
4 | O=C(Nc1nncs1)NS(=O)(=O)n1c(=S)sc2ccccc21 | > 100 µM (inactive) | 42.4 µM (inactive) | > 100 µM (inactive) | > 100 µM (inactive) | 51.9 µM (inactive) | > 100 µM (inactive) | > 100 µM (inactive) | > 100 µM (inactive) | > 100 µM (inactive) | > 100 µM (inactive) | > 100 µM (inactive) | > 100 µM (inactive) | 24.9 µM (inactive) | > 100 µM (inactive) | > 100 µM (inactive) | > 100 µM (inactive) | > 100 µM (inactive) | – | > 100 µM (inactive) | > 100 µM (inactive)
5 | CCOC(=O)CC1Nc2ccccc2C12CCc1c([nH]c3ccccc13)C2C(=O)OCC (configuration not stated) | 27 µM (inactive) | 6.1 µM (inactive) | 9.42 µM (inactive) | 14.3 µM (inactive) | 14.7 µM (inactive) | 10.5 µM (inactive) | 14.8 µM (inactive) | 12.9 µM (inactive) | 53.2 µM (inactive) | 11.6 µM (inactive) | 26.5 µM (inactive) | 28.6 µM (inactive) | 0.359 µM (active) | 12.3 µM (inactive) | 9.62 µM (inactive) | 3.61 µM (inactive) | 47.5 µM (inactive) | – | 14.2 µM (inactive) | > 100 µM (inactive)
6 | CCN(CC)CCN1C(=O)c2c(c(-c3ccccc3)c3ccccc3c2-c2ccccc2)C1=O | > 100 µM (inactive) | > 100 µM (inactive) | > 100 µM (inactive) | > 100 µM (inactive) | > 100 µM (inactive) | > 100 µM (inactive) | > 100 µM (inactive) | > 100 µM (inactive) | > 100 µM (inactive) | > 100 µM (inactive) | > 100 µM (inactive) | > 100 µM (inactive) | > 100 µM (inactive) | > 100 µM (inactive) | > 100 µM (inactive) | 71.6 µM (inactive) | 37.6 µM (inactive) | > 100 µM (inactive) | > 100 µM (inactive) | –
7 | Cc1[nH]c2ccccc2c1/C=N/c1ccc(Oc2ccccc2)cc1 | 18.4 µM (inactive) | 13.8 µM (inactive) | 18.3 µM (inactive) | 17.1 µM (inactive) | 12.1 µM (inactive) | 19 µM (inactive) | 16.2 µM (inactive) | 16.6 µM (inactive) | 13.8 µM (inactive) | 17.3 µM (inactive) | 15.5 µM (inactive) | 16.3 µM (inactive) | 7.05 µM (inactive) | 14.9 µM (inactive) | 17.9 µM (inactive) | 14 µM (inactive) | 16.3 µM (inactive) | – | 20.4 µM (inactive) | 16.1 µM (inactive)
8 | CC(C)(C)OC(=O)CC(NC(=O)OC(C)(C)C)C(=O)N[C@@H]1CCCC[C@H]1C(=O)OCc1ccccc1 (some centres not stated) | 32.3 µM (inactive) | 17 µM (inactive) | – | 25.2 µM (inactive) | 24.7 µM (inactive) | 33.7 µM (inactive) | 30.1 µM (inactive) | 17.5 µM (inactive) | 21.4 µM (inactive) | 17.2 µM (inactive) | 29 µM (inactive) | 32.7 µM (inactive) | 20.8 µM (inactive) | 45.2 µM (inactive) | 16.2 µM (inactive) | 24.7 µM (inactive) | 70.6 µM (inactive) | 26.4 µM (inactive) | 29.6 µM (inactive) | 32.5 µM (inactive)
9 | O=C(O)CN(CCNC(=O)OCC1c2ccccc2-c2ccccc21)CCNC(=O)OCC1c2ccccc2-c2ccccc21 | 22.9 µM (inactive) | 23.4 µM (inactive) | – | 23.3 µM (inactive) | 24.6 µM (inactive) | 22.3 µM (inactive) | 18.6 µM (inactive) | 17.7 µM (inactive) | 24 µM (inactive) | 17.5 µM (inactive) | 18.1 µM (inactive) | 20.6 µM (inactive) | 24.5 µM (inactive) | 27.1 µM (inactive) | 23.7 µM (inactive) | 25 µM (inactive) | 20.1 µM (inactive) | 33.3 µM (inactive) | 19.2 µM (inactive) | 19.9 µM (inactive)
10 | CCC(C)C(C(=O)N/N=C1/SCC(=O)N1c1ccccc1)C(=O)N/N=C1/SCC(=O)N1c1ccccc1 (configuration not stated) | 33.7 µM (inactive) | 36 µM (inactive) | – | > 100 µM (inactive) | > 100 µM (inactive) | 21.2 µM (inactive) | 27.5 µM (inactive) | 23 µM (inactive) | > 100 µM (inactive) | > 100 µM (inactive) | 38.4 µM (inactive) | > 100 µM (inactive) | 46.1 µM (inactive) | 16.4 µM (inactive) | 20 µM (inactive) | > 100 µM (inactive) | > 100 µM (inactive) | – | > 100 µM (inactive) | 43.5 µM (inactive)
11 | CCOC(=O)c1nc2ccccc2nc1Oc1cc(OC)c(OC)c(OC)c1 | 90.2 µM (inactive) | > 100 µM (inactive) | > 100 µM (inactive) | > 100 µM (inactive) | > 100 µM (inactive) | > 100 µM (inactive) | > 100 µM (inactive) | > 100 µM (inactive) | > 100 µM (inactive) | > 100 µM (inactive) | > 100 µM (inactive) | 46.9 µM (inactive) | > 100 µM (inactive) | > 100 µM (inactive) | > 100 µM (inactive) | 45.2 µM (inactive) | 38.1 µM (inactive) | – | > 100 µM (inactive) | > 100 µM (inactive)
12 | CCOP(=O)(OCC)OC1CC(n2cnc3c(N(CC)CC)ncnc32)OC1CO[Si](C)(C)C(C)(C)C (configuration not stated) | 21.7 µM (inactive) | 11.2 µM (inactive) | – | 15.7 µM (inactive) | 65 µM (inactive) | 22.4 µM (inactive) | 19.7 µM (inactive) | 16.8 µM (inactive) | 12.2 µM (inactive) | 16.6 µM (inactive) | 16.2 µM (inactive) | 15.3 µM (inactive) | 14.4 µM (inactive) | 14.1 µM (inactive) | 14.8 µM (inactive) | 16.7 µM (inactive) | 16.1 µM (inactive) | 19.2 µM (inactive) | 15 µM (inactive) | 15.5 µM (inactive)
13 | Cc1c(Cl)c(=O)oc2cc(OCC(O)COC(C)C)ccc12 (configuration not stated) | 30.3 µM (inactive) | 27.5 µM (inactive) | – | 42.2 µM (inactive) | 22.1 µM (inactive) | 20 µM (inactive) | 50.5 µM (inactive) | 43 µM (inactive) | 43.5 µM (inactive) | 40.2 µM (inactive) | 35 µM (inactive) | 44.1 µM (inactive) | 34.3 µM (inactive) | 38.9 µM (inactive) | 74.6 µM (inactive) | 64.4 µM (inactive) | 39.9 µM (inactive) | – | 36.1 µM (inactive) | 99.5 µM (inactive)
14 | CCOn1c(C2(CC3CCN(C(=O)c4ccccc4)CC3)OCCO2)cc2ccccc21 | 16.8 µM (inactive) | 12.8 µM (inactive) | 12.9 µM (inactive) | 16.9 µM (inactive) | – | 18.2 µM (inactive) | 15.8 µM (inactive) | 15.8 µM (inactive) | 12.6 µM (inactive) | 18.9 µM (inactive) | 15.7 µM (inactive) | 14.6 µM (inactive) | 12.6 µM (inactive) | 15.2 µM (inactive) | 11 µM (inactive) | 15.8 µM (inactive) | 16.5 µM (inactive) | 0.084 µM (active) | 14.1 µM (inactive) | 18.1 µM (inactive)
